Results: patent US11965039B2, “Compstatin analogues and their medical uses” (priority 2018, dated 2024)
Where two headings read alike, the source gives them in different places. Starred links: 1 amine or outer side, 2 acyl side, 3 side chain; linkers in the order of their positions; H or OH if unused. Positions of bridges follow the written chain, without caps; N, C: chain ends. Non-standard residues stand in square brackets, D forms with d. Residues, ends and D or L forms follow the SMILES beside them. Groups on a side chain read outwards from the residue. *: point of attachment. Trp(1-Me) = Cn1cc(C[C@H](N)C(=O)O)c2ccccc21; C18 diacid = O=C(O)CCCCCCCCCCCCCCCCC(=O)*; C16 diacid = O=C(O)CCCCCCCCCCCCCCC(=O)*; γGlu = O=C(O)[C@H](CCC(=O)[*:2])N[*:1]; AEEA = NCCOCCOCC(=O)O; Sar = CNCC(=O)O

Tested on: classical complement pathway
Test: In vitro haemolysis assay (inhibition of classical complement pathway)
Type: cell-based, human
Settings: human serum, sensitized sheep red blood cells
Procedure, shortened: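 Compound dilutions preincubated 15 min at room temperature with diluted human serum (titrated per batch for 70-90% maximal haemolysis), then antibody-sensitized sheep RBC (10^7/well) added for 30 min at 37 °C in Tris/casein buffer, pH 7.4. Stopped with EDTA; haemolysis read at 405 nm; IC50 by 4PL fit.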

[1] = Table 3, given as upper bounds, read-out: IC50, inhibition of hemolysis
[2] = Table 4, valine 3 vs isoleucine 3 pairs, read-out: CP hemolysis IC50

| SMILES | IC50 [1] [nM] | IC50 [2] [nM] |
| --- | --- | --- |
| CC[C@H](C)[C@H](NC(C)=O)C(=O)N[C@H]1CSSC[C@@H](C(=O)N[C@H](C(=O)NCC(=O)N[C@@H](C)C(=O)N[C@@H](CCC(=O)O)C(=O)N[C@@H](CO)C(N)=O)[C@@H](C)O)NC(=O)[C@H](CCCNC(=N)N)NC(=O)[C@H](Cc2c[nH]cn2)NC(=O)[C@H](C)NC(=O)CNC(=O)[C@H](Cc2c[nH]c3ccccc23)NC(=O)[C@H](CCCCN)NC(=O)[C@H](CCC(N)=O)NC(=O)[C@H](Cc2c[nH]c3ccccc23)NC(=O)[C@H]([C@@H](C)CC)NC1=O [Compound 8] (Ac-ICIWQKWGAHRCTGAES-NH2; disulfide 2-12) | < 500 | – |
| CC[C@H](C)[C@H](NC(C)=O)C(=O)N[C@H]1CSSC[C@@H](C(=O)N[C@H](C(=O)N[C@@H](CCC(=O)O)C(=O)NCC(=O)N[C@@H](CCCCNC(=O)COCCOCCNC(=O)COCCOCCNC(=O)CC[C@H](NC(=O)CCCCCCCCCCCCCCC(=O)O)C(=O)O)C(N)=O)[C@@H](C)O)NC(=O)[C@H](CCCNC(=N)N)NC(=O)[C@H](Cc2c[nH]cn2)NC(=O)[C@H](CCC(=O)O)NC(=O)CNC(=O)[C@H](Cc2c[nH]c3ccccc23)NC(=O)[C@H](CC(=O)O)NC(=O)[C@H](CCC(N)=O)NC(=O)[C@H](Cc2c[nH]c3ccccc23)NC(=O)[C@H]([C@@H](C)CC)NC1=O [Compound 93] (Ac-ICIWQDWGEHRCTEGK([AEEA-AEEA-γGlu-C16 diacid])-NH2; disulfide 2-12) | < 500 | – |
| CC[C@H](C)[C@H](NC(C)=O)C(=O)N[C@H]1CSSC[C@@H](C(=O)N[C@H](C(=O)N[C@@H](CCC(=O)O)C(=O)NCC(=O)N[C@@H](CCC(=O)O)C(N)=O)[C@@H](C)O)NC(=O)[C@H](CCCNC(=N)N)NC(=O)[C@H](Cc2c[nH]cn2)NC(=O)[C@H](CCC(=O)O)NC(=O)CNC(=O)[C@H](Cc2c[nH]c3ccccc23)NC(=O)[C@H](CC(=O)O)NC(=O)[C@H](CCC(N)=O)NC(=O)[C@H](Cc2c[nH]c3ccccc23)NC(=O)[C@H](C(C)C)NC1=O [J, reference compound] (Ac-ICVWQDWGEHRCTEGE-NH2; disulfide 2-12) | – | 240 |
| CC[C@H](C)[C@H](NC(C)=O)C(=O)N[C@H]1CSSC[C@@H](C(=O)N[C@H](C(N)=O)[C@@H](C)O)NC(=O)[C@H](CCCNC(=N)N)NC(=O)[C@H](Cc2c[nH]cn2)NC(=O)[C@H](CCC(=O)O)NC(=O)CNC(=O)[C@H](Cc2c[nH]c3ccccc23)NC(=O)[C@H](CCC(=O)O)NC(=O)[C@H](CCC(N)=O)NC(=O)[C@H](Cc2c[nH]c3ccccc23)NC(=O)[C@H]([C@@H](C)CC)NC1=O [Compound 16] (Ac-ICIWQEWGEHRCT-NH2; disulfide 2-12) | < 100 | – |
| CC[C@H](C)[C@@H]1NC(=O)[C@@H](NC(=O)[C@H](Cc2ccc(O)cc2)NC(=O)[C@H](CCC(=O)O)NC(=O)[C@H](CO)NC(C)=O)CSSC[C@@H](C(=O)N(C)CC(=O)N[C@@H](CCC(=O)O)C(=O)NCC(=O)N[C@@H](C)C(=O)N[C@@H](CCCCNC(=O)COCCOCCNC(=O)CC[C@H](NC(=O)COCCOCCNC(=O)CNC(=O)CC[C@H](NC(=O)CCCCCCCCCCCCCCCCC(=O)O)C(=O)O)C(=O)O)C(N)=O)NC(=O)[C@H](CCCNC(=N)N)NC(=O)[C@H](Cc2c[nH]cn2)NC(=O)[C@H](CCC(=O)O)NC(=O)CNC(=O)[C@H](Cc2c[nH]c3ccccc23)NC(=O)[C@H](CCC(=O)O)NC(=O)[C@H](CCC(N)=O)NC(=O)[C@H](Cc2cn(C)c3ccccc23)NC1=O [Compound 122] (Ac-SEYCI[Trp(1-Me)]QEWGEHRC[Sar]EGAK([AEEA-γGlu-AEEA-Gly-γGlu-C18 diacid])-NH2; disulfide 4-14) | < 500 | – |
| CC[C@H](C)[C@H](NC(=O)[C@H](C)NC(=O)[C@H](CO)NC(=O)CNC(=O)[C@H](CCCCNC(=O)COCCOCCNC(=O)COCCOCCNC(=O)CC[C@H](NC(=O)CCCCCCCCCCCCCCC(=O)O)C(=O)O)NC(C)=O)C(=O)N[C@H]1CSSC[C@@H](C(=O)N[C@H](C(=O)N[C@@H](CCC(=O)O)C(=O)NCC(=O)N[C@@H](CCC(=O)O)C(N)=O)[C@@H](C)O)NC(=O)[C@H](CCCNC(=N)N)NC(=O)[C@H](Cc2c[nH]cn2)NC(=O)[C@H](CCC(=O)O)NC(=O)CNC(=O)[C@H](Cc2c[nH]c3ccccc23)NC(=O)[C@H](CC(=O)O)NC(=O)[C@H](CCC(N)=O)NC(=O)[C@H](Cc2c[nH]c3ccccc23)NC(=O)[C@H]([C@@H](C)CC)NC1=O [Compound 100] (Ac-K([AEEA-AEEA-γGlu-C16 diacid])GSAICIWQDWGEHRCTEGE-NH2; disulfide 6-16) | < 500 | – |
| CC[C@H](C)[C@@H]1NC(=O)[C@@H](NC(=O)[C@H](Cc2ccccc2)NC(=O)[C@H](CCC(=O)O)NC(=O)[C@H](CO)NC(C)=O)CSSC[C@@H](C(=O)N(C)CC(=O)N[C@@H](CCC(=O)O)C(=O)NCCOCCOCC(=O)NCCOCCOCC(=O)N[C@@H](CCCCNC(=O)CC[C@H](NC(=O)CNC(=O)CC[C@H](NC(=O)CCCCCCCCCCCCCCCCC(=O)O)C(=O)O)C(=O)O)C(N)=O)NC(=O)[C@H](CCCNC(=N)N)NC(=O)[C@H](Cc2c[nH]cn2)NC(=O)[C@H](CCC(=O)O)NC(=O)CN(C)C(=O)[C@H](Cc2c[nH]c3ccccc23)NC(=O)[C@H](CC(=O)O)NC(=O)[C@H](CCC(N)=O)NC(=O)[C@H](Cc2cn(C)c3ccccc23)NC1=O [Compound 144, Ac-SEFC(1)I[1-Me-Trp]QDW[Sar]EHRC(1)[Sar]E[Peg3][Peg3]-K([17-carboxy-heptadecanoyl][γGlu]G[γGlu])-NH2] (Ac-SEFCI[Trp(1-Me)]QDW[Sar]EHRC[Sar]E[AEEA][AEEA]K([γGlu-Gly-γGlu-C18 diacid])-NH2; disulfide 4-14) | < 100 | – |
| CC[C@H](C)[C@@H]1NC(=O)[C@@H](NC(=O)[C@H](Cc2ccccc2)NC(=O)[C@H](CCC(=O)O)NC(=O)[C@H](CO)NC(C)=O)CSSC[C@@H](C(=O)N(C)CC(=O)N[C@@H](CCC(=O)O)C(=O)N[C@@H](CCCCN)C(=O)N[C@@H](CCC(=O)NCC(=O)NCC(=O)NCC(=O)N[C@@H](CCCCNC(=O)CC[C@H](NC(=O)CNC(=O)CC[C@H](NC(=O)CCCCCCCCCCCCCCCCC(=O)O)C(=O)O)C(=O)O)C(N)=O)C(=O)O)NC(=O)[C@H](CCCNC(=N)N)NC(=O)[C@H](Cc2c[nH]cn2)NC(=O)[C@H](CCC(=O)O)NC(=O)CNC(=O)[C@H](Cc2c[nH]c3ccccc23)NC(=O)[C@H](CC(=O)O)NC(=O)[C@H](CCC(N)=O)NC(=O)[C@H](Cc2cn(C)c3ccccc23)NC1=O [Compound 132] (Ac-SEFCI[Trp(1-Me)]QDWGEHRC[Sar]EK[γGlu]GGGK([γGlu-Gly-γGlu-C18 diacid])-NH2; disulfide 4-14) | < 100 | – |
| CC[C@H](C)[C@H](NC(C)=O)C(=O)N[C@H]1CSSC[C@@H](C(=O)N[C@H](C(N)=O)[C@@H](C)O)NC(=O)[C@H](CCCNC(=N)N)NC(=O)[C@H](Cc2c[nH]cn2)NC(=O)[C@H](CO)NC(=O)CNC(=O)[C@H](Cc2c[nH]c3ccccc23)NC(=O)[C@H](CC(=O)O)NC(=O)[C@H](CCC(N)=O)NC(=O)[C@H](Cc2c[nH]c3ccccc23)NC(=O)[C@H](C(C)C)NC1=O [B, reference compound] (Ac-ICVWQDWGSHRCT-NH2; disulfide 2-12) | – | 360 |
| CC[C@H](C)[C@H](NC(C)=O)C(=O)N[C@H]1CSSC[C@@H](C(=O)N[C@@H](CO)C(N)=O)NC(=O)[C@H](CCCNC(=N)N)NC(=O)[C@H](Cc2c[nH]cn2)NC(=O)[C@H](CCC(=O)O)NC(=O)CNC(=O)[C@H](Cc2c[nH]c3ccccc23)NC(=O)[C@H](CC(=O)O)NC(=O)[C@H](CCC(N)=O)NC(=O)[C@H](Cc2c[nH]c3ccccc23)NC(=O)[C@H]([C@@H](C)CC)NC1=O [Compound 21] (Ac-ICIWQDWGEHRCS-NH2; disulfide 2-12) | < 100 | 77 |
